Assay results published in publication PMC10606064, “2-Aminothiazole-Flavonoid Hybrid Derivatives Binding to Tau Protein and Responsible for Antitumor Activity in Glioblastoma” (International Journal of Molecular Sciences, 2023).

How the values were obtained:
[1] = target: T1, Tau-induced microtubule assembly (tubulin) (Homo sapiens, UniProt P10636); assay: Turbidimetry of in vitro Tau-induced microtubule assembly; assay type: biochemical, lamb; settings: 10 µM tubulin, 5 µM Tau, 2.5–50 µM compound, 37 °C
T1 construct: The full-length human Tau (hTau40) was expressed in a transformed E. coli BL21 (DE3) strain; made in house; host or cells: Tau: E. coli BL21 (DE3); tubulin: purified from lamb brain tissue
T1 sequence (P10636 2-441 isoform P10636-8): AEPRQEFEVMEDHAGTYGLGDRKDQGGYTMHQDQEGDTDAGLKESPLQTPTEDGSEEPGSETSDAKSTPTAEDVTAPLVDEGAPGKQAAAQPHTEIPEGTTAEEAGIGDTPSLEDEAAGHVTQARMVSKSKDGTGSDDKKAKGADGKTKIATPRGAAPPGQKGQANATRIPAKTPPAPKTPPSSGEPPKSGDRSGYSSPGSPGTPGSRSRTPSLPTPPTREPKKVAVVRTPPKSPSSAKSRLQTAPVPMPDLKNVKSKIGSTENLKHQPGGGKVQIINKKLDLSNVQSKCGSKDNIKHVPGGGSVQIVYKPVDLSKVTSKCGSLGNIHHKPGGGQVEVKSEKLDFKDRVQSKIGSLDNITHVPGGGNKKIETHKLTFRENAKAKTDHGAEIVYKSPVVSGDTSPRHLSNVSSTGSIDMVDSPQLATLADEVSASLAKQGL
Description: The polymerization of tubulin was monitored by measuring the apparent absorbance at 350 nm using a Beckman DU 7400 spectrophotometer at 37 °C. Tubulin at a final concentration of 10 µM was mixed with compounds at the indicated concentration and immediately placed into the spectrometer chamber. When the signal was stable, Tau at a final concentration of 5 µM was added to induce microtubule formation. Measurements were continued until turbidity values reached a plateau.

U87 shCTRL cells = assay: Cell cycle by flow cytometry (propidium iodide), U87 shCTRL; assay type: cell-based, human; settings: 48 h
Description: Measurements of cell cycle from DNA content were performed by flow cytometry as described before. Briefly, 4.10^5 cells in exponential growth were seeded in 6-well plates. After 24 h, they were treated with 10 µM of compounds for 48 h. Nocodazole was used as a positive control with a concentration of 1 µM. The trypsinized cells were harvested and then centrifuged (1200 rpm, 5 min, at room temperature). The cell pellet was resuspended in 1 mL of PBS 1× at 4 °C, and then an extra 4 mL of cold PBS was added to wash the pellet. Cells were then centrifuged again (1200 rpm, 5 min, at 4 °C). To fixate the cells, the pellet was resuspended in 100 µL of cold 70% ethanol, then an additional 900 µL was added and cells were incubated for 30 min at −20 °C. After that, 9 mL of cold PBS was added, and cells were centrifuged (2000 rpm, 5 min, at 4 °C) to remove ethanol. The cell pellet was then resuspended in the staining mix containing 50 µg.mL^−1 of propidium iodide (Molecular Probes, Paris, France) and 100 µg.mL^−1 of RNAse A (Sigma-Aldrich, Saint-Quentin-Fallavier, France) in PBS for 20 min at room temperature in darkness. Samples were analyzed on a Beckman–Coulter–Gallios flow cytometer using the Kaluza for Gallios Acquisition v1.0 software. Propidium iodide was excited at 488 nm, and fluorescence was analyzed at 620 nm on channel FL-3. For the analysis, there is considerable overlap between early S phase and G1 and between late S phase and G2/M due to broadening of the distribution caused by variability in the staining of the cells and instrumental variability. Therefore, the percentages of cells in the sub-G1, G1, S, and G2/M phases of the cell cycle were calculated using the Watson et al. algorithm for cell cycle analysis in Kaluza for Gallios Analysis v2.1 software. The software automatically adjusted gates based on PI median fluorescence intensity of the cells and their frequency among total cells. The number of cells in each phase was divided by the total number of analyzed cells, and the values were reported as percentage of the total cells for each cell cycle phase.

U87 shTau cells = assay: Mitotic index by high-content imaging, U87 shTau; assay type: cell-based, human; settings: 48 h, 5-times IC50 of compounds
Description: For scoring mitotic indexes, an automated high-content screening confocal microscopy approach was employed to identify cells undergoing mitosis from a large population of cells. For this, cells nuclei were stained with DAPI. Briefly, fibronectin-coated clear-glass-bottom black 96-well imaging plates were seeded with 100 µL of cell suspension (60,000 cell.mL^−1) in each well, with both U87 shCTRL and U87 ShTau cell lines. Cells were treated with 5-times IC50 of compounds for 48 h, then they were fixated inside the palates with 4% formaldehyde (in PBS pH 7.4) for 20 min at room temperature, permeabilized with PBS-Triton X-100 0.5% for 10 min at room temperature. DNA was then stained with DAPI (10 µg.mL^−1) for 5 min at room temperature and in the darkness. After being washed, cells were kept in PBS at 4 °C and imaged while in PBS. Automated confocal microscopy was carried out using an Opera Phenix (PerkinElmer) high-content screening microscope using a 20× Air/0.4 NA air objective. For each condition, 6 wells were prepared and a total of 61 fields were acquired for each well. Image analysis was performed using Harmony high-content analysis v4.8 software and PhenoLOGIC Machine Learning technology, which uses a learn-by-example approach. As a first step, nuclei were segmented and multiple parameters for these nuclei were calculated using Harmony v4.8 software building blocks. After training, PhenoLOGIC Machine Learning then selects the best parameters to detect nuclei undergoing the M phase of mitosis. From this, the mitotic index of each condition was calculated by dividing the number of cells undergoing mitosis over the total number of cells.

[2] = system: Caco-2 colon adenocarcinoma cells; assay: MTT cell viability assay, Caco-2; assay type: cell-based; settings: Homo sapiens, Caco-2 (not expressing Tau), 72 h, mean ± SEM, read-out: IC50 (metabolic activity)
Description: Cells harvested from sub-confluent monolayers were seeded at 15,000 cells per mL in a 96-well microtiter plate (Cambridge Technology, Labège, France) and cultured for 24 h under standard conditions. Standard medium was then replaced by fresh medium containing no drugs or compounds at different concentrations. The surviving cells were quantified after 72 h by the MTT assay, according to the manufacturer’s instructions. Briefly, 20 µL of 3-(4,5-diMethylThiazol-2-yl)-2,5diphenyl Tetrazolium bromide (MTT) solution at 5 mg.mL^−1 was added to cells for 3 h at 37 °C. The supernatant was discarded and replaced by 100 µL of dimethyl sulfoxide to dissolve formazan crystals. The absorbance was then read at 600 nm by spectrophotometry. For all concentrations of a given compound, cell viability was expressed as the percentage of the ratio between the mean absorbance of treated cells and the mean absorbance of untreated cells. Three independent experiments were performed, and the data were expressed as percentage of survival (using the untreated cells as 100%) and subjected to statistical analysis (n = 3). The IC50 was calculated using the Chou and Talalay method.

`Nc1nc2ccc3oc(-c4cccc(Oc5ccccc5)c4)cc(=O)c3c2s1` [Compound 2, 2-amino-7-(3-phenoxyphenyl)-9H-chromeno [6,5-d]thiazol-9-one] was tested, and the “effect on turbidity time course of Tau-induced microtubule assembly” value [1] was “no effect on the turbidity time course”, the “effect on cell cycle progression” value (U87 shCTRL cells; 10 µM) was “no significant effect on cell cycle progression” and the mitotic index (U87 shTau cells) was “no significant variation of mitotic indexes”. The IC50 [2] was greater than 100 µM.
For `Nc1nc2ccc3oc(C(=O)O)cc(=O)c3c2s1` [Compound 5], the “effect on turbidity time course of Tau-induced microtubule assembly” value [1] was “no effect on the turbidity time course”, the “%G1 (cells in G1 phase)” value (U87 shCTRL cells; compounds 10 µM, NOC 1 µM) was 53 ± 4% and the “%G2/M (cells in G2/M phase)” value (U87 shCTRL cells; compounds 10 µM, NOC 1 µM) was 34 ± 5%. It also gave a mitotic index (U87 shTau cells) of 3 ± 0.39% and an IC50 [2] greater than 100 µM.
